From US9011853B2, “B7-H4 fusion proteins and methods of use thereof” (Amplimmune, Inc., priority 2009, dated 2015)
Where “and” joins values, the source holds several entries; their conditions need not be identical. Equal entries are not always repeated.

System: serum levels of 58 analytes
Assay: Serum biomarker analysis, quantitative immunoassay multi-analyte profiling (Rules-Based Medicine RodentMAP v2.9), AA#80
Type: in vivo, mouse
Method: In AA#80, serum samples were collected on Day 27, Day 34, Day 41 and Day 55 via the submandibular vein. Approximately 200 μL of blood per mouse was collected in Microtainer® serum separator tubes. Serum was removed following centrifugation and stored at <−65° C. until analysis.
Selected serum samples were sent to Rules-Based Medicine (Austin, Tex.) for quantitative immunoassay multi-analyte profiling of serum samples, with the goal of identifying biomarkers that could be used to monitor disease progression and response to B7-H4-Ig treatment. Day 27, Day 34, and Day 41 sera from the three representative mice in the B7-H4-Ig group (tag #3332, 3334, and 3338) and three representative mice in the Synagis® group (tag #3324, 3329, and 3330) were analyzed for levels of 58 analytes using the RodentMAP v2.9 Testing Service.
Data from the Rules-Based Medicine analysis was analyzed using Microsoft Excel and GraphPad Prism software. T-tests were performed to compare the levels of each analyte in the B7-H4-Ig versus Synagis® treated samples. No correction was made for multiple comparisons. Additionally, correlation coefficients were calculated for each analyte versus disease score.

Q: Which “serum samples with undetectable GST-α levels” value (all samples (Day 27, 34, 41)) does the source give for “Synagis®: humanized monoclonal IgG antibody against the F protein of Respiratory Syncytial Virus; used as a human IgG1 isotype control [reference compound]” here?
A: 7/9

Q: What about the “serum samples with TNF-α levels above the limit of detection” value (all samples (Day 27, 34, 41) (FIG. 16)) of the same substance?
A: 5/9

Q: And the “M-CSF (Macrophage-Colony Stimulating Factor)” value (serum, Day 34, LDD 0.01795, listed as Human LgG1 Control)?
A: 6.46 ng/mL and 6.3 ng/mL and 6.09 ng/mL

Q: What about the “MIP-1gamma (Macrophage Inflammatory Protein-1gamma)” value (serum, Day 34, LDD 0.0736, listed as Human LgG1 Control) of the same substance?
A: 42.2 ng/mL and 41 ng/mL and 40.9 ng/mL

Q: And the “TEMP-1 (Tissue Inhibitor of Metalicproteinase Type-1)” value (serum, Day 34, LDD 0.18, listed as Human LgG1 Control)?
A: 1.7 ng/mL and 1.88 ng/mL and 1.31 ng/mL

Q: And the “IL-5 (Interleukin-5)” value (serum, Day 34, LDD 0.194, listed as Human LgG1 Control)?
A: 0.333 ng/mL and 0.474 ng/mL

Q: And the “MIP-1alpha (Macrophage Inflammatory Protein-1alpha)” value (serum, Day 34, LDD 0.2255, listed as Human LgG1 Control)?
A: 3.13 ng/mL and 2.88 ng/mL and 2.93 ng/mL

Q: What about the “MIP-3beta (Macrophage Inflammatory Protein-3beta)” value (serum, Day 34, LDD 0.465, listed as Human LgG1 Control) of the same substance?
A: 2.63 ng/mL and 2.52 ng/mL and 2.67 ng/mL

Q: And the “Tissue Factor” value (serum, Day 34, LDD 0.5175, listed as Human LgG1 Control)?
A: 10.8 ng/mL and 10 ng/mL and 12.5 ng/mL

Q: What about the “MPO (Myeloperoxidase)” value (serum, Day 34, LDD 0.95, listed as Human LgG1 Control) of the same substance?
A: 253 ng/mL and 254 ng/mL

Q: What about the “SGOT (Serum Glutamic-Oxaloacetic Transaminase)” value (serum, Day 34, LDD 1.86, listed as Human LgG1 Control) of the same substance?
A: 75 µg/mL and 140 µg/mL and 81.9 µg/mL

Q: And the “TPO (Thromboproletin)” value (serum, Day 34, LDD 2.66, listed as Human LgG1 Control)?
A: 36.1 ng/mL and 34.2 ng/mL and 39.8 ng/mL

Q: What about the “SAP (Setrum Amtyloid P)” value (serum, Day 34, LDD 5.4, listed as Human LgG1 Control) of the same substance?
A: 38.4 µg/mL and 48.6 µg/mL and 38.3 µg/mL

Q: And the “MIP-2 (Macrophage Inflammatory Protein-2)” value (serum, Day 34, LDD 7.174, listed as Human LgG1 Control)?
A: 27.2 pg/mL and 32.3 pg/mL and 33.6 pg/mL

Q: What about the “MMP-9 (Matrix Metalloproteinase-9)” value (serum, Day 34, LDD 10, listed as Human LgG1 Control) of the same substance?
A: 207 ng/mL and 259 ng/mL and 283 ng/mL

Q: And the “MCP-1 (Monocyte Chemoattractant Protein-1)” value (serum, Day 34, LDD 16.924, listed as Human LgG1 Control)?
A: 99.8 pg/mL and 78.3 pg/mL and 117 pg/mL

Q: What about the “VCAM-1 (Vescular Cell Adhesion Molecule-1)” value (serum, Day 34, LDD 19, listed as Human LgG1 Control) of the same substance?
A: 2290 ng/mL and 2120 ng/mL and 2450 ng/mL

Q: And the “MDC (Macrophage-Derived Chemokine)” value (serum, Day 34, LDD 21.85, listed as Human LgG1 Control)?
A: 1270 pg/mL and 1320 pg/mL and 1130 pg/mL

Q: And the Myoglobin (serum, Day 34, LDD 24, listed as Human LgG1 Control)?
A: 10 ng/mL and 9.69 ng/mL and 12.7 ng/mL

Q: What about the “MCP-3 (Monocyte Chemoattractant Protein-3)” value (serum, Day 34, LDD 31.36, listed as Human LgG1 Control) of the same substance?
A: 188 pg/mL and 180 pg/mL and 193 pg/mL

Q: What about the “VEGF (Vescular Endotheial Cell Growth Factor)” value (serum, Day 34, LDD 38.2, listed as Human LgG1 Control) of the same substance?
A: 92.6 pg/mL and 128 pg/mL and 114 pg/mL

Q: And the “IP-10 (Inducible Protein-10)” value (serum, Day 34, LDD 40.28, listed as Human LgG1 Control)?
A: 68.1 pg/mL and 52 pg/mL and 84.3 pg/mL

Q: What about the “LIF (Leukemia Infabitory Factor)” value (serum, Day 34, LDD 43.6, listed as Human LgG1 Control) of the same substance?
A: 1620 pg/mL and 1430 pg/mL

Q: What about the “MCP-5 (Monocyte Chemoattractant Protein-5)” value (serum, Day 34, LDD 46.38, listed as Human LgG1 Control) of the same substance?
A: 37.5 pg/mL and 46.2 pg/mL and 41 pg/mL

Q: What about the “SCF (Stem Cell Factor)” value (serum, Day 34, LDD 75.17, listed as Human LgG1 Control) of the same substance?
A: 214 pg/mL and 182 pg/mL

Q: What about the Lymphotactin (serum, Day 34, LDD 85.48, listed as Human LgG1 Control) of the same substance?
A: 219 pg/mL and 151 pg/mL and 205 pg/mL

Q: What about the “VWF (Von Willebrand Factor)” value (serum, Day 34, LDD 98.6, listed as Human LgG1 Control) of the same substance?
A: 107 ng/mL and 92.4 ng/mL and 139 ng/mL

Q: What about the “M-CSF (Macrophage-Colony Stimulating Factor)” value (serum, Day 41, LDD 0.01795, listed as Human LgG1 Control) of the same substance?
A: 6.38 ng/mL and 5.22 ng/mL and 6.37 ng/mL

Q: What about the “MIP-1gamma (Macrophage Inflammatory Protein-1gamma)” value (serum, Day 41, LDD 0.0736, listed as Human LgG1 Control) of the same substance?
A: 45.4 ng/mL and 44.8 ng/mL

Q: What about the “TEMP-1 (Tissue Inhibitor of Metalicproteinase Type-1)” value (serum, Day 41, LDD 0.18, listed as Human LgG1 Control) of the same substance?
A: 3.54 ng/mL and 3.21 ng/mL and 4.33 ng/mL

Q: What about the “IL-5 (Interleukin-5)” value (serum, Day 41, LDD 0.194, listed as Human LgG1 Control) of the same substance?
A: 0.616 ng/mL and 0.368 ng/mL and 0.333 ng/mL

Q: What about the “MIP-1alpha (Macrophage Inflammatory Protein-1alpha)” value (serum, Day 41, LDD 0.2255, listed as Human LgG1 Control) of the same substance?
A: 3.03 ng/mL and 3.13 ng/mL and 3.32 ng/mL

Q: And the “MIP-3beta (Macrophage Inflammatory Protein-3beta)” value (serum, Day 41, LDD 0.465, listed as Human LgG1 Control)?
A: 3.27 ng/mL and 2.73 ng/mL and 2.35 ng/mL

Q: And the “Tissue Factor” value (serum, Day 41, LDD 0.5175, listed as Human LgG1 Control)?
A: 10.8 ng/mL and 9.17 ng/mL and 11.7 ng/mL

Q: What about the “MPO (Myeloperoxidase)” value (serum, Day 41, LDD 0.95, listed as Human LgG1 Control) of the same substance?
A: 259 ng/mL and 263 ng/mL and 240 ng/mL

Q: And the “SGOT (Serum Glutamic-Oxaloacetic Transaminase)” value (serum, Day 41, LDD 1.86, listed as Human LgG1 Control)?
A: 84 µg/mL and 93.9 µg/mL and 78.4 µg/mL

Q: What about the “TPO (Thromboproletin)” value (serum, Day 41, LDD 2.66, listed as Human LgG1 Control) of the same substance?
A: 38 ng/mL and 39.8 ng/mL and 32.4 ng/mL

Q: What about the “SAP (Setrum Amtyloid P)” value (serum, Day 41, LDD 5.4, listed as Human LgG1 Control) of the same substance?
A: 49.2 µg/mL and 46.2 µg/mL and 48.8 µg/mL

Q: And the “MIP-2 (Macrophage Inflammatory Protein-2)” value (serum, Day 41, LDD 7.174, listed as Human LgG1 Control)?
A: 33.6 pg/mL and 50.3 pg/mL

Q: What about the “IL-6 (Interleukin-6)” value (serum, Day 41, LDD 13.852, listed as Human LgG1 Control) of the same substance?
A: 74.2 pg/mL and 67.5 pg/mL and 93.7 pg/mL

Q: What about the “MCP-1 (Monocyte Chemoattractant Protein-1)” value (serum, Day 41, LDD 16.924, listed as Human LgG1 Control) of the same substance?
A: 90.2 pg/mL and 129 pg/mL and 105 pg/mL

Q: What about the “VCAM-1 (Vescular Cell Adhesion Molecule-1)” value (serum, Day 41, LDD 19, listed as Human LgG1 Control) of the same substance?
A: 2130 ng/mL and 1890 ng/mL and 1900 ng/mL
